Measured values as given in patent publication US20030236301A1, “Liposomal delivery of vitamin E based compounds” (priority 2001, published 2003).

Assays:
[1] = test system: 66 c1.4 GFP murine mammary tumor cells; test: TUNEL assay for apoptosis in vivo in 66 c1.4-GFP tumor sections; set-up: species or system Balb/c mice; conditions: liposomal formulation by aerosol, vs control
Text: Deparaffinized sections (5 μm) of tumor tissue were used to assess apoptosis using reagents supplied in the ApopTag In Situ Apoptosis Detection kit (Intergen, Purchase, N.Y.) according to the manufacturer's instructions. Nuclei that stained brown were scored as positive for apoptosis and those that stained blue were scored as negative. At least sixteen 400× microscopic fields were scored per tumor. Data are presented as the mean±S.E. number of apoptotic cells counted in three separate tumors from each group. Pictures of tumor tissue were taken at 1000× magnification.

66 c1.4-GFP tumors [2] = test: KI-67 immunohistochemistry of cell proliferation in tumors; assay type: in vivo, Balb/c mice; conditions: liposomal formulation by aerosol, vs control
66 c1.4-GFP tumors [3] = test: CD31 immunohistochemistry of tumor blood vessel numbers; assay type: in vivo, Balb/c mice; conditions: liposomal formulation by aerosol, vs control
[4] = test system: 66 c1.4 GFP murine mammary tumor cells; test: Tumor growth of 66 c1.4-GFP mammary tumor cells in Balb/c mice (tumor volume); conditions: Example 18: liposomal formulation by aerosol, 75 mg in nebulizer/day
Protocol: 66 c1.4-GFP cells were harvested by trypsinization, centrifuged, resuspended in McCoy's media, containing no supplements at a density of 2×10^5/100 μl. Mice were injected in the inguinal area at a point equal distance between the 4th and 5th nipples on the right side using a 23 gauge needle.
50 mice were assigned (10 per group) to aerosol treatment, aerosol control, oral treatment, oral control, or to the no treatment group so that the average tumor volume for all groups were closely matched. […] Tumors were measured using calipers every other day, and volumes were calculated using the formula: volume (mm^3) [width (mm)^2×length (mm)]/2. Body weights were determined weekly.
Balb/c mice were injected with 200,000 66 c1.4 GFP cells subcutaneous in the mammary fat pad area between the 4th and 5th nipple on the right side of the body.
Mice are injected with 200,000 66 c1.4 GFP murine mammary tumor cells as described on day 0. Treatments are initiated on day 9 when tumors reached 1-3 mm in size. Aerosol treatments of α-TEA liposomes (5 mg α-TEA/mouse) are administered daily for 16 days (FIG. 8). Data represent the mean+/−Standard Error (SE), N=10 mice for control and treatment groups.
Balb/c mice were injected s.c. with 2×10^5 66 c1.4-GFP cells in the inguinal area between the 4th and 5th nipple on the right side of the body. When tumors reached 2×2-4×4 mm (9 days after tumor injection), mice were placed into 5 groups ((Group 1: untreated control, Group 2: liposome/aerosol control, Group 3: liposomal α-TEA aerosol treatment, Group 4: peanut oil/gavage control, Group 5: α-TEA in peanut oil/gavage treatment) of 10 mice/group) such that the mean tumor volume of each group was closely matched. Daily treatments were initiated on day 9 after tumor injection.
Balb/c mice were injected with 200,000 66 c1.4 GFP cells subcutaneous in the mammary fat pad area between the 4th and 5th nipple on the right side of the body. […] Animals were treated with α-TEA in liposome, vitamin E succinate in liposome, or control liposome alone via aerosol, 7 days per week, for 21 days. Animals were given 75 mg compound via nebulization per day such that each animal received 36 μg compound per day.
The size of the tumors, 9-21 days after injection of 200,000 66 c1.4 GFP cells between the 4th and 5th nipple on the right side of each mouse, is determined. Treatments are initiated on day 9 after tumor inoculation. Each group consists of n=10+/−SE. Gavage Treatment=Treatments of 5 mg of α-TEA in ethanol and peanut oil (0.1 ml volume) are administered daily starting on day 9 after tumor inoculation and continuing through day 21. Gavage Control=Mice received peanut oil and ethanol alone (0.1 ml volume)/daily, starting on day 9 after tumor inoculation and continuing through day 21. Data (tumor size) are depicted as the mean+/−standard error for days 9, 11, 13, 15, 17, 19, and 21.
Balb/c mice were injected with 200,000 66 c1.4 GFP cells subcutaneous in the mammary fat pad area between the 4th and 5th nipple on the right side of the body. […] Animals were treated with α-TEA in liposome vitamin E succinate in liposome, or control liposome alone via oral gavage, 2 times per day, 7 days per week, for 21 days. Animals were given a total of 6 mg compound per day.

[5] = after thirty minutes, intramuscular delivery; cited from earlier work
[6] = test system: 66 c1.4 GFP murine mammary tumor cells; test: Lung and lymph node metastases of 66 c1.4-GFP tumors in Balb/c mice; assay type: in vivo; conditions: Example 33: liposomal aerosol; α-TEA 5 mg/d, 9NC 2 μg/d in nebulizer; listed as Lip/9NC
Text: Metastastic lesions in the five lung lobes were counted visually at time of sacrifice. Fluorescent green micro-metastatic cancer cell colonies in the left lung lobe and lymph nodes were counted using a Nikon fluorescence microscope (TE-200) with a 20×objective (200× magnification) and Image-Pro Plus (version 4.1; Media Cybernetics, Silver Spring, Md.) software associated with the microscope. Fluorescent lesions were separated into three size grouping: <5 μm, 5-10 μm and >10 μm.
At sacrifice, lungs were taken, examined visually for metastatic lesions and frozen for analyses of micrometastases by fluorescence.
Use of a Nikon fluorescence microscope and Image-Pro Plus software permitted measurement of green fluorescing micrometastases into three size groupings of <5 μm, 5-10 μm and >10 μm.
At sacrifice, the left lung lobe of each mouse of flash frozen and saves for detection of GFP expressing micrometatstic lesions via fluorescent microscopy.

Row | Structure (SMILES) | % Enhanement of TUNEL positive apoptotic cells [1] [%] | % Reduction of KI67 cell proliferation (66 c1.4-GFP tumors [2]) [%] | % Reduction of CD31 tumor blood vessel numbers (66 c1.4-GFP tumors [3]) [%] | inhibition of tumor growth ([4]; day 15 of treatment) [%] | inhibition of tumor growth ([4]; day 17 of treatment) [%] | Levels of 9-nitrocamptothecin in the brain [5] | Inhibition (%) Metastases Lymphnode [6] [%]
1 | Cc1c(C)c2c(c(C)c1O)CCC(C)(CCCC(C)CCCC(C)CCCC(C)C)O2 (racemic) [dl-α-tocopherol] | 44 | 33 | 51 | 81 | 73 |  | 
2 | CC[C@@]1(O)C(=O)OCc2c1cc1n(c2=O)Cc2cc3c([N+](=O)[O-])cccc3nc2-1 [9-nitrocamptothecin, reference compound] |  |  |  |  |  | 0 | 60
